# Test results taken from patent publication US4160097A, “1-(2-Phenylureylene)imidazoles” (Westwind Pharmaceuticals, Inc., priority 1977, dated 1979).
# System: humeral or antibody response
# Test: hemolysin test in mice
# Assay type: in vivo
# Details: Mus musculus, sc, dose reducing antibody activity by 50% vs control, read-out: HL(ED50)
row,SMILES,ED50 [mg/kg]
1,CCC(=O)Nc1ccccc1-n1ccnc1 [Compound 3],50
2,CCCNC(=O)Nc1ccccc1-n1ccnc1 [Compound 66],46
3,CCCCCCCCc1nc2ccccc2n2ccnc12 [Compound 117],> 50
4,FC(F)(F)c1cccc(-c2nc3ccccc3n3ccnc23)c1 [Compound 136],2.7
5,COc1cc(OC)cc(-c2nc3ccccc3n3ccnc23)c1 [Compound 139],3
6,Clc1cccc(-c2nc3ccccc3n3ccnc23)c1 [Compound 142],0.2
7,Clc1ccc(-c2nc3ccccc3n3ccnc23)cc1Cl [Compound 143],0.36
8,Brc1ccc(-c2nc3ccccc3n3ccnc23)cc1 [Compound 146],0.11
9,Fc1ccc(-c2nc3ccccc3n3ccnc23)cc1 [Compound 147],0.027
10,N#Cc1ccc(-c2nc3ccccc3n3ccnc23)cc1 [Compound 149],0.16
11,O=[N+]([O-])c1cccc(-c2nc3ccccc3n3ccnc23)c1 [Compound 150],22
12,Brc1cccc(-c2nc3ccccc3n3ccnc23)c1 [Compound 157],0.39
13,Fc1cccc(-c2nc3ccccc3n3ccnc23)c1 [Compound 158],1
14,Oc1ccc(-c2nc3ccccc3n3ccnc23)cc1 [Compound 162],13
15,c1ccc(Nc2nc3ccccc3n3ccnc23)cc1 [Compound 170],6.6
16,Cc1ccc(Nc2nc3ccccc3n3ccnc23)cc1 [Compound 171],0.96
17,Clc1ccc(Nc2nc3ccccc3n3ccnc23)cc1 [Compound 174],0.61
18,Clc1ccc(Nc2nc3ccccc3n3ccnc23)cc1Cl [Compound 175],0.09
19,Brc1ccccc1Nc1nc2ccccc2n2ccnc12 [Compound 177],13
20,Brc1cccc(Nc2nc3ccccc3n3ccnc23)c1 [Compound 178],11
21,Fc1ccccc1Nc1nc2ccccc2n2ccnc12 [Compound 180],5.6
22,Fc1cccc(Nc2nc3ccccc3n3ccnc23)c1 [Compound 181],16
23,Brc1ccc(Nc2nc3ccccc3n3ccnc23)cc1 [Compound 183],0.39
24,Ic1ccc(-c2nc3ccccc3n3ccnc23)cc1 [Compound 196],0.42
25,Cc1ccccc1Nc1nc2ccccc2n2ccnc12 [Compound 197],1.6
26,CC(C)c1ccc(Nc2nc3ccccc3n3ccnc23)cc1 [Compound 218],1.5
27,c1ccc(Oc2ccc(-c3nc4ccccc4n4ccnc34)cc2)cc1 [Compound 219],2.5
28,COc1ccc(Oc2ccc(-c3nc4ccccc4n4ccnc34)cc2)cc1 [Compound 220],2.3
29,CCCCSc1ccc(-c2nc3ccccc3n3ccnc23)cc1 [Compound 222],1

# System: carrageenan rat paw edema
# Test: Rat Paw Edema Assay, Oral Dosing
# Assay type: in vivo
# Details: 4 h, 100 mg/kg oral, four hours after drug, read-out: % Difference from Control
# Procedure: The anti-inflammatory activity of representative compounds of this invention was determined by the rat paw edema assay both by local administration (Table XI below) and by oral dosing (Table XII below). For the oral dosing, the procedure of C. A. Winter, E. A. Risley and G. W. Nuss, Proc. Soc. Exp. Biol. Med. III, 544 (1962) was employed with measurement taken four hours after the drug was administered. The local administration tests were carried out similarly except the irritant (carrageenan) and the test compound were injected simultaneously at time zero.
# Tables XI and XII report the anti-inflammatory activity of the compounds tested as % difference in the edema or swelling as compared with the control. These Tables also give the response in many instances of more than one dose level of the same drug.
row,SMILES,change in vivo at 100 mg/kg [%]
1,"CC(=O)Oc1ccccc1C(=O)O [Aspirin, reference compound]",-57
2,CC(=O)Nc1ccccc1-n1ccnc1 [Compound 2],-26
3,CC(C)CC(=O)Nc1ccccc1-n1ccnc1 [Compound 14],-52
4,CCCCC(CC)C(=O)Nc1ccccc1-n1ccnc1 (centres unmarked) [Compound 15],-24
5,O=C(Cc1ccccc1)Nc1ccccc1-n1ccnc1 [Compound 18],-28
6,O=C(Nc1ccccc1-n1ccnc1)C1CC1 [Compound 23],-46
7,O=C(Nc1ccccc1-n1ccnc1)C1CCC1 [Compound 24],-17
8,O=C(Nc1ccccc1-n1ccnc1)C1CCCCC1 [Compound 25],-30
9,O=C(Nc1ccccc1-n1ccnc1)C(Cl)Cl [Compound 29],-24
10,O=C(Nc1ccccc1-n1ccnc1)C(F)(F)F [Compound 30],9
11,Cc1cccc(C(=O)Nc2ccccc2-n2ccnc2)c1 [Compound 36],-7
12,Cc1ccc(C(=O)Nc2ccccc2-n2ccnc2)cc1 [Compound 37],-35
13,O=C(Nc1ccccc1-n1ccnc1)c1cccc(C(F)(F)F)c1 [Compound 38],-41
14,O=C(Nc1ccccc1-n1ccnc1)c1cccc([N+](=O)[O-])c1 [Compound 42],-9
15,O=C(Nc1ccccc1-n1ccnc1)c1ccc(F)cc1 [Compound 45],-33
16,O=C(Nc1ccccc1-n1ccnc1)c1cccc(Cl)c1 [Compound 50],-20
17,O=C(Nc1ccccc1-n1ccnc1)c1ccc(Cl)cc1Cl [Compound 52],-26
18,COc1ccc(C(=O)Nc2ccccc2-n2ccnc2)cc1 [Compound 55],-26

row,SMILES,change in vivo at 100 mg/kg [%]
1,COc1cc(OC)cc(C(=O)Nc2ccccc2-n2ccnc2)c1 [Compound 57],-35
2,O=C(Nc1ccccc1-n1ccnc1)NC1CCCCC1 [Compound 68],-26
3,Cc1ccc(NC(=O)Nc2ccccc2-n2ccnc2)cc1 [Compound 71],-22
4,O=C(Nc1cccc(F)c1)Nc1ccccc1-n1ccnc1 [Compound 73],-22
5,O=C(Nc1ccc(Cl)cc1)Nc1ccccc1-n1ccnc1 [Compound 75],-30
6,CCc1nc2ccccc2n2ccnc12 [Compound 111],-43
7,CCCCCCc1nc2ccccc2n2ccnc12 [Compound 115],70
8,CCCCCCCCc1nc2ccccc2n2ccnc12 [Compound 117],-7
9,CC(C)Cc1nc2ccccc2n2ccnc12 [Compound 121],-61
10,C=CCCCCCCCCc1nc2ccccc2n2ccnc12 [Compound 123],0
11,c1ccc2c(c1)nc(C1CCC1)c1nccn12 [Compound 128],-39
12,FC(F)(F)c1cccc(-c2nc3ccccc3n3ccnc23)c1 [Compound 136],-9
13,COc1cc(OC)cc(-c2nc3ccccc3n3ccnc23)c1 [Compound 139],-22
14,Clc1ccc(-c2nc3ccccc3n3ccnc23)c(Cl)c1 [Compound 144],-26
15,Fc1ccc(-c2nc3ccccc3n3ccnc23)cc1 [Compound 147],-39
16,O=[N+]([O-])c1cccc(-c2nc3ccccc3n3ccnc23)c1 [Compound 150],-30
17,"COc1ccc2c(c1)c(CC(=O)O)c(C)n2C(=O)c1ccc(Cl)cc1 [Indomethacin, reference compound]",-65
18,"CCCCC1C(=O)N(c2ccccc2)N(c2ccccc2)C1=O [phenylbutazone, reference compound]",-76

# Same assay, conditions: 4 h, 400 mg/kg oral, four hours after drug, read-out: % Difference from Control
row,SMILES,change in vivo at 400 mg/kg [%]
1,CC(=O)Nc1ccccc1-n1ccnc1 [Compound 2],43
2,CCCCC(CC)C(=O)Nc1ccccc1-n1ccnc1 (centres unmarked) [Compound 15],-5
3,O=C(Nc1ccccc1-n1ccnc1)C1CCC1 [Compound 24],-25
4,O=C(Nc1ccccc1-n1ccnc1)C(Cl)Cl [Compound 29],-25
5,O=C(Nc1ccccc1-n1ccnc1)C(F)(F)F [Compound 30],-33
6,Cc1cccc(C(=O)Nc2ccccc2-n2ccnc2)c1 [Compound 36],-68
7,O=C(Nc1ccccc1-n1ccnc1)c1cccc([N+](=O)[O-])c1 [Compound 42],-25
8,O=C(Nc1ccccc1-n1ccnc1)c1cccc(Cl)c1 [Compound 50],-33
9,CCCCCCc1nc2ccccc2n2ccnc12 [Compound 115],-25
10,CCCCCCCCc1nc2ccccc2n2ccnc12 [Compound 117],-18
11,C=CCCCCCCCCc1nc2ccccc2n2ccnc12 [Compound 123],-50
12,FC(F)(F)c1cccc(-c2nc3ccccc3n3ccnc23)c1 [Compound 136],-25
13,COc1cc(OC)cc(-c2nc3ccccc3n3ccnc23)c1 [Compound 139],-25

# System: Trichophyton rubrum
# Test: Antifungal activity, agar dilution method
# Assay type: cell-based, Trichophyton rubrum (ATCC No. 10218 and 14001)
# Details: T. rubrum, read-out: Parts Per Million Inhibitions of T. rubrum
# Procedure: (§1) various compounds of this invention display antifungal and anti-yeast activity.
# (§2) In Table IX below are listed the antifungal activity of a number of compounds encompassed in the present invention. These were determined by the agar dilution method as described in Chapters 2 and 3 of Methods in Microbiology, Vol. 7B, edited by J. R. Norris and D. W. Ribbons, Academic Press, New York, 1972.
row,SMILES,MIC [µg/mL]
1,O=C(Nc1ccccc1-n1ccnc1)c1cccc(Br)c1 [Compound 59],100
2,CCCCCCCCCCCCCCCc1nc2ccccc2n2ccnc12 [Compound 119],8
3,CCCCCCCCCCCCCCCCCc1nc2ccccc2n2ccnc12 [Compound 120],1
4,C=CCCCCCCCCc1nc2ccccc2n2ccnc12 [Compound 123],2
5,c1ccc2c(c1)nc(C1CCC1)c1nccn12 [Compound 128],16

# System: Trichophyton mentagrophytes
# Test: Antifungal activity, agar dilution method
# Assay type: cell-based, Trichophyton mentagrophytes (ATCC No. 8757 and 9129)
# Details: T. mentagrophytes, read-out: Parts Per Million Inhibitions of T. mentagrophytes
# Procedure: as §1, §2
row,SMILES,MIC [µg/mL]
1,FC(F)(F)c1cccc(-c2nc3ccccc3n3ccnc23)c1 [Compound 136],100
2,COc1cc(OC)cc(-c2nc3ccccc3n3ccnc23)c1 [Compound 139],100
3,Clc1cccc(-c2nc3ccccc3n3ccnc23)c1 [Compound 142],100

# System: cell-mediated immune response to the antigen, Mycobacterium tuberculosis H37Ra
# Test: delayed hypersensitivity test
# Assay type: in vivo, mouse
# Details: Mus musculus, sc; mice; dose reducing edema of cell-mediated immune response by 60% vs control; read-out: D.H.S. (ED60)
# Procedure: The immunosuppressant activities of the compounds of this invention were determined via the hemolysin test in mice and by the delayed hypersensitivity test. The hemolysin test used is that described in Methods in Immunology, edited by D. H. Campbell et al, W. A. Benjamin, New York 1963 pages 172-175, and measures humeral or antibody response. The delayed hypersensitivity test measures the effect of a test compound on the ability of a subject mouse to mount a cell-mediated immune response to the antigen, Mycobacterium tuberculosis H37Ra. The mouse is sensitized to the antigen by subcutaneous administration in the base of the tail. The development of the delayed hypersensitivity response may be measured at any time beginning six days after sensitization but is usually done on the ninth day as follows: The right hind paw is injected with purified protein derivative (tuberculin) while the left hind paw (control) receives physiological saline. Both paw volumes are measured after twenty-four hours and significant increase in the volume of the right hand paw is taken as a measure of an effective delayed hypersensitivity response. All compounds were administered by the subcutaneous route.
# The D.H.S. (ED60) mg./kg. s.c. value appearing in column 3 is an expression of the effectiveness of the drug in reducing the edema that accompanies the cell-mediated immune response. It is a measure of the number of milligrams per kilogram of body weight of the drug administered subcutaneously which is required to reduce the edema of the cell-mediated immune response by 60% when compared to the control.
row,SMILES,ED60 [mg/kg]
1,CCC(=O)Nc1ccccc1-n1ccnc1 [Compound 3],50
2,CCCNC(=O)Nc1ccccc1-n1ccnc1 [Compound 66],> 50
3,CCCCCCCCc1nc2ccccc2n2ccnc12 [Compound 117],46
4,FC(F)(F)c1cccc(-c2nc3ccccc3n3ccnc23)c1 [Compound 136],> 50
5,COc1cc(OC)cc(-c2nc3ccccc3n3ccnc23)c1 [Compound 139],> 50
6,Clc1cccc(-c2nc3ccccc3n3ccnc23)c1 [Compound 142],4.2
7,Clc1ccc(-c2nc3ccccc3n3ccnc23)cc1Cl [Compound 143],1.3
8,Brc1ccc(-c2nc3ccccc3n3ccnc23)cc1 [Compound 146],3.1
9,Fc1ccc(-c2nc3ccccc3n3ccnc23)cc1 [Compound 147],1.7
10,N#Cc1ccc(-c2nc3ccccc3n3ccnc23)cc1 [Compound 149],8.8
11,O=[N+]([O-])c1cccc(-c2nc3ccccc3n3ccnc23)c1 [Compound 150],> 50
12,Brc1cccc(-c2nc3ccccc3n3ccnc23)c1 [Compound 157],12
13,Fc1cccc(-c2nc3ccccc3n3ccnc23)c1 [Compound 158],7.6
14,c1ccc(Nc2nc3ccccc3n3ccnc23)cc1 [Compound 170],> 50
15,Cc1ccc(Nc2nc3ccccc3n3ccnc23)cc1 [Compound 171],59
16,Clc1ccc(Nc2nc3ccccc3n3ccnc23)cc1 [Compound 174],8
17,Clc1ccc(Nc2nc3ccccc3n3ccnc23)cc1Cl [Compound 175],5.9
18,Brc1ccccc1Nc1nc2ccccc2n2ccnc12 [Compound 177],> 50
19,Brc1cccc(Nc2nc3ccccc3n3ccnc23)c1 [Compound 178],46
20,Brc1ccc(Nc2nc3ccccc3n3ccnc23)cc1 [Compound 183],15
21,Ic1ccc(-c2nc3ccccc3n3ccnc23)cc1 [Compound 196],45
22,Cc1ccccc1Nc1nc2ccccc2n2ccnc12 [Compound 197],37
23,CC(C)c1ccc(Nc2nc3ccccc3n3ccnc23)cc1 [Compound 218],25
24,c1ccc(Oc2ccc(-c3nc4ccccc4n4ccnc34)cc2)cc1 [Compound 219],> 32
25,COc1ccc(Oc2ccc(-c3nc4ccccc4n4ccnc34)cc2)cc1 [Compound 220],11
26,CCCCSc1ccc(-c2nc3ccccc3n3ccnc23)cc1 [Compound 222],> 32

# Same assay, conditions: s.c.; mice; dose reducing edema of cell-mediated immune response by 60% vs control
row,SMILES,D.H.S. (ED60) [mg/kg]
1,CCC(=O)Nc1ccccc1-n1ccnc1 [Compound 3],50.0
